Assays:
[1] = biological target: T1, BKPyV agnoprotein (recombinant 10xHis BK agnoprotein) (Betapolyomavirus hominis, UniProt P03085); assay: carboxyfluorescein release from liposomes, endpoint fluorescence; format: biochemical; details: recombinant protein pre-incubated with compound 10 min at room temperature; PA/PC liposomes, HBS pH 7.4; 400 uM rimantadine
T1 construct: full-length, N-terminal 10xHis tag kept (pET19b, codon optimised), expressed in E. coli, purified by Ni-NTA, cation exchange and C4, dissolved in DMSO; SDS-resistant oligomers (copy number undefined); reconstituted in PA/PC liposomes
T1 sequence (P03085 whole entry): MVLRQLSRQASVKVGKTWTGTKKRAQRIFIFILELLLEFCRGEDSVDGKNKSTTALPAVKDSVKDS

[2] = biological target: T1, BKPyV agnoprotein (recombinant 10xHis BK agnoprotein); assay: as above; format: biochemical; details: recombinant protein pre-incubated with compound 10 min at room temperature; PA/PC liposomes, HBS pH 7.4; compound concentration not in text

SMILES	% reduction in channel activity at 400 uM [1]	reduction in CF release [2]
CC(N)C12CC3CC(CC(C3)C1)C2 (centres unmarked) [rimantadine]	~ 50%	
CCCCCCCCCN1C[C@H](O)[C@@H](O)[C@H](O)[C@H]1CO [NN-DNJ]		Addition of NN-DNJ also led to a significant reduction in agnoprotein mediated CF release

Source: publication doi:10.1101/2023.01.30.526200v1, “The virus-encoded ion channel “viroporin” activity of the agnoprotein is required for BK Polyomavirus release from infected kidney cells” (biorxiv, 2023)
